Measured values published in the supplement of paper PMC10307832.

Assays:
Assay in all cases: relative viability (nuclei count vs DMSO), 5 days (fraction); higher = more cells survive
Ponatinib + Alpelisib = compound: Cc1ccc(C(=O)Nc2ccc(CN3CCN(C)CC3)c(C(F)(F)F)c2)cc1C#Cc1cnc2cccnn12 [Ponatinib] + Cc1nc(NC(=O)N2CCC[C@H]2C(N)=O)sc1-c1ccnc(C(C)(C)C(F)(F)F)c1 [Alpelisib] (partner 2 µM)
In short: (§1)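 Relative viability is defined as nuclei in treated wells over nuclei in vehicle wells. Duplicate plates were run and medians reported. Lung cancer cell lines in 1536-well plates were dosed by pin tool one day after seeding, with one drug or with a fixed anchor-drug dose plus five library-drug doses (not always all listed) in √10 steps, and nuclei were counted after 5 days.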

Ponatinib + Olaparib = compound: Cc1ccc(C(=O)Nc2ccc(CN3CCN(C)CC3)c(C(F)(F)F)c2)cc1C#Cc1cnc2cccnn12 [Ponatinib] + O=C(c1cc(Cc2n[nH]c(=O)c3ccccc23)ccc1F)N1CCN(C(=O)C2CC2)CC1 [Olaparib] (partner 8 µM)
In short: as §1

Pazopanib + Bortezomib = compound: Cc1ccc(Nc2nccc(N(C)c3ccc4c(C)n(C)nc4c3)n2)cc1S(N)(=O)=O [Pazopanib] + CC(C)C[C@H](NC(=O)[C@H](Cc1ccccc1)NC(=O)c1cnccn1)B(O)O [Bortezomib] (partner 0.002 µM)
In short: as §1

Pazopanib + Linsitinib = compound: Cc1ccc(Nc2nccc(N(C)c3ccc4c(C)n(C)nc4c3)n2)cc1S(N)(=O)=O [Pazopanib] + C[C@]1(O)C[C@@H](c2nc(-c3ccc4ccc(-c5ccccc5)nc4c3)c3c(N)nccn32)C1 [Linsitinib] (partner 1 µM)
In short: as §1

Cell Line | relative viability (Ponatinib + Alpelisib; first compound 0.002 µM) | relative viability (Ponatinib + Alpelisib; first compound 0.006325 µM) | relative viability (Ponatinib + Alpelisib; first compound 0.06325 µM) | relative viability (Ponatinib + Alpelisib; first compound 0.2 µM) | relative viability (Ponatinib + Olaparib; first compound 0.002 µM) | relative viability (Ponatinib + Olaparib; first compound 0.006325 µM) | relative viability (Ponatinib + Olaparib; first compound 0.06325 µM) | relative viability (Ponatinib + Olaparib; first compound 0.2 µM) | relative viability (Pazopanib + Bortezomib; first compound 0.01 µM) | relative viability (Pazopanib + Bortezomib; first compound 0.03162 µM) | relative viability (Pazopanib + Bortezomib; first compound 0.1 µM) | relative viability (Pazopanib + Bortezomib; first compound 0.3162 µM) | relative viability (Pazopanib + Bortezomib; first compound 1 µM) | relative viability (Pazopanib + Linsitinib; first compound 0.01 µM) | relative viability (Pazopanib + Linsitinib; first compound 0.03162 µM) | relative viability (Pazopanib + Linsitinib; first compound 0.1 µM) | relative viability (Pazopanib + Linsitinib; first compound 0.3162 µM) | relative viability (Pazopanib + Linsitinib; first compound 1 µM)
COR-L 105 | 0.976 | 0.846 | 1.31 | 0.935 | 0.711 | 0.709 | 0.723 | 0.747 | 0.903 | 0.859 | 0.684 | 0.765 | 0.977 | 0.909 | 0.964 | 1.1 | 0.822 | 1.21
NCI-H1975 | 0.618 | 0.773 | 0.92 | 0.675 | 0.756 | 0.77 | 0.787 | 0.732 | 0.356 | 0.346 | 0.461 | 0.464 | 0.448 | 0.85 | 0.943 | 0.992 | 0.929 | 0.985
Calu-6 | 0.956 | 1.04 | 1.02 | 0.685 | 0.541 | 0.556 | 0.497 | 0.493 | 0.928 | 1.06 | 1.04 | 0.932 | 0.957 | 0.865 | 1.07 | 0.957 | 0.908 | 1.04
NCI-H1993 | 0.63 | 0.793 | 0.71 | 0.688 | 1.01 | 1.01 | 1.16 | 1.12 | 0.758 | 1.02 | 1.02 | 1.2 | 1.28 | 0.717 | 0.757 | 0.726 | 0.638 | 0.852
SK-LU-1 | 0.945 | 1.14 | 0.952 | 0.646 | 0.36 | 0.491 | 0.535 | 0.388 | 1.15 | 1.08 | 1.23 | 1.37 | 1.27 | 1.02 | 1.22 | 1.17 | 1.27 | 1.11
NCI-H23 | 0.61 | 0.818 | 0.905 | 0.666 | 0.327 | 0.343 | 0.466 | 0.328 | 0.813 | 1.1 | 1.11 | 1.07 | 1.41 | 0.505 | 0.629 | 0.556 | 0.567 | 0.842
HCC-366 | 0.375 | 0.43 | 0.69 | 0.376 | 0.323 | 0.382 | 0.482 | 0.328 | 0.954 | 1.07 | 1.02 | 0.973 | 1.09 | 0.472 | 0.73 | 0.674 | 0.828 | 0.885
EMC-BAC-2 | 0.695 | 0.707 | 0.82 | 0.721 | 0.434 | 0.455 | 0.482 | 0.398 | 0.889 | 1.11 | 1.1 | 1.04 | 1.22 | 0.758 | 0.855 | 0.864 | 0.84 | 0.803
NCI-H3122 | 0.883 | 0.86 | 0.863 | 0.909 | 0.507 | 0.634 | 0.564 | 0.592 | 1.04 | 0.985 | 0.917 | 1.02 | 1.1 | 0.969 | 1.06 | 0.998 | 1.12 | 0.945
EPLC-272H | 0.781 | 1.12 | 1.12 | 0.942 | 0.777 | 0.9 | 0.778 | 0.624 | 0.765 | 1.07 | 0.843 | 1.12 | 1.1 | 0.98 | 1.13 | 1.25 | 1.26 | 1.17
EBC-1 | 0.78 | 0.836 | 0.903 | 0.846 | 0.625 | 0.756 | 0.77 | 0.644 | 0.524 | 0.602 | 0.712 | 0.519 | 0.65 | 0.964 | 0.979 | 0.977 | 0.922 | 0.979
NCI-H1915 | 0.976 | 1.03 | 1.06 | 0.961 | 0.254 | 0.275 | 0.278 | 0.234 | 0.936 | 0.963 | 0.983 | 0.972 | 0.884 | 1.12 | 1.14 | 1.08 | 1.03 | 0.994
NCI-H647 | 1.12 | 1.25 | 1.06 | 0.961 | 0.521 | 0.527 | 0.615 | 0.522 | 0.822 | 0.93 | 0.963 | 1.07 | 1.05 | 1.17 | 1.4 | 1.17 | 1.23 | 1.11
NCI-H441 | 0.625 | 0.615 | 0.808 | 0.525 | 0.437 | 0.477 | 0.578 | 0.438 | 0.377 | 0.384 | 0.665 | 0.324 | 0.434 | 0.536 | 0.528 | 0.558 | 0.5 | 0.612
NCI-H1299 | 1.04 | 1.09 | 0.987 | 0.935 | 0.981 | 0.955 | 0.938 | 0.876 | 0.998 | 0.987 | 1.05 | 1.03 | 1.02 | 0.902 | 1.02 | 1.01 | 0.97 | 0.932
NCI-H2228 | 0.677 | 0.788 | 1.13 | 0.75 | 0.622 | 0.57 | 0.823 | 0.566 | 0.954 | 1.07 | 0.866 | 0.926 | 0.834 | 0.741 | 0.665 | 0.792 | 0.901 | 0.607
